The values that follow come from US6979686B1, “Substituted pyrazoles as p38 kinase inhibitors” (Pharmacia Corporation, priority 2001, dated 2005).

Where two headings read alike, the source gives them in different places.

For one assay, the target named is T1, human p38 kinase alpha (Homo sapiens, UniProt Q16539).
T1 construct: GST (N, cleaved yes); made in house; host or cells: E. coli DH10B
In words: p38 kinase in vitro assay, phosphorylation of biotinylated PHAS-I with 32P-ATP. The assay is classed as biochemical. Conditions: for P38 alpha kinase % inhib @ conc. (uM): @ 1.0 uM; for IC50: read-out: P38 alpha kinase IC50.

For assay [1], the system named is TNF alpha, BALB/c mice injected with LPS. In words: Mouse model of LPS-induced TNF alpha production. As to conditions: for Mouse LPS Model % TNF inhib @ dose @ predose time / inhibition in vivo at 30 mg/kg: 30 mpk oral gavage; for inhibition in vivo at 30 mg/kg: Mus musculus, read-out: Mouse LPS Model % TNF inhib @ dose @ predose time; for mLPS 8 h percent inhibition: Table 6, mouse LPS, head '8 h'. The class given is in vivo. As for the experimental part:
Mouse Model of LPS-induced TNF Alpha Production:
TNF alpha was induced in 10-12 week old BALB/c female mice by tail vein injection with 100 ng lipopolysaccharide (from S. Typhosa) in 0.2 ml saline. One hour later mice were bled from the retroorbital sinus and TNF concentrations in serum from clotted blood were quantified by ELISA.
Efficacy was determined at each time point as percent inhibition of serum TNF levels relative to LPS injected mice that received vehicle only.
In vivo assessment of the ability of the compounds to inhibit LPS-stimulated TNP release in the mouse is shown in the column identified as: • “Mouse LPS Model, % TNF inhib @ dose @ predose time” wherein in the dose is milligram per kilogram (mpk) administered by oral gavage and the predose time indicates the number of hours before LPS challenge when the compound is administered.

Assay [2] has as its system TNF-α, U937 human histiocytic lymphoma cell line. The assay is described as follows: LPS stimulation of TNF production by U937 cells. The assay is classed as cell-based. Summed up:
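U937 cells differentiated 24 h with 20 ng/ml PMA, rested 24-48 h, used at 2 million cells/ml. Compounds in 0.1% DMSO final; LPS (E. coli, 100 ng/ml final) stimulation for 4 h at 37° C. Released TNF-α measured by ELISA; IC50 (μM).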

The mark [3] stands for this setting: TNF production, human U937 cells stimulated with LPS, read-out: U937 Cell IC50.
Where [4] appears, read: predose time not printed ("@ -").
Where [5] appears, read: Table 6, U937 cell assay, read-out: U937 IC50.
Setting [6] is: in vitro P38-alpha kinase inhibition.

T1 sequence (Q16539 whole entry): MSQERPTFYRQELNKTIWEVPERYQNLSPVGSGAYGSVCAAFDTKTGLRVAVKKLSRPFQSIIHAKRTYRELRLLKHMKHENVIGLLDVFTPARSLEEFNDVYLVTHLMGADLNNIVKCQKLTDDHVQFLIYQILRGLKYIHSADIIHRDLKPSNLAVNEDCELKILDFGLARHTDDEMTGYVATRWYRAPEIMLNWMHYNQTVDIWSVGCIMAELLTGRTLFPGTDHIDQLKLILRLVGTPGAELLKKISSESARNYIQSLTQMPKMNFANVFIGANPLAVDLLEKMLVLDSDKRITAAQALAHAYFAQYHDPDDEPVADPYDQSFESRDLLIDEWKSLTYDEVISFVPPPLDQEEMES

Regarding `C=CCOC(=O)NCCCc1[nH]nc(-c2ccc(F)cc2)c1-c1ccncc1` [Example B-1162], on human p38 kinase alpha, the “P38 alpha kinase % inhib @ conc. (uM)” value was 79.0% @. For the same compound, the “Mouse LPS Model % TNF inhib @ dose @ predose time” value in assay [1] (−6 h before LPS challenge) was found to be 40% @ 30 mpk @ −6 h. The IC50 in assay [2] (setting [3]) turned out to be 590 nM. For `O=C(c1ccccc1F)N1CCC(c2[nH]nc(-c3ccc(F)cc3)c2-c2ccncc2)CC1` [Example B-1372], the IC50 at human p38 kinase alpha (in vitro P38-alpha kinase) was below 100 nM; in assay [2] (Homo sapiens, U-937, TNF production, human U937 cells stimulated with LPS, read-out: U937 Cell IC50) it was 410 nM. Besides, the inhibition in vivo at 30 mg/kg in assay [1] (setting [4]) came to 48%. `O=C(NCCCc1[nH]nc(-c2ccc(F)cc2)c1-c1ccncc1)c1ccccc1I` [Example B-1159]: the “P38 alpha kinase % inhib @ conc. (uM)” value on human p38 kinase alpha was found to be 66.0% @. In assay [1] (−6 h before LPS challenge), the “Mouse LPS Model % TNF inhib @ dose @ predose time” value was 60% @ 30 mpk @ −6 h. `Fc1ccc(CNc2cc(-c3cn(CCN4CCOCC4)nc3-c3ccc(F)cc3)ccn2)cc1` [Example A-285, N-[(4-fluorophenyl)methyl]-4-[3-(4-fluorophenyl)-1-[2-(4-morpholinyl)ethyl]-1H-pyrazol-4-yl]-2-pyridinamine]: the “mLPS 8 h percent inhibition” value in assay [1] (dose 30, oral gavage) turned out to be 11%. In assay [2] (setting [5]), the IC50 was determined as 180 nM. For the compound `Cc1ccc(F)cc1S(=O)(=O)NC(C)c1[nH]nc(-c2ccc(F)cc2)c1-c1ccncc1` (stereo not drawn) [Example B-0451], on human p38 kinase alpha (setting [6]), the half-maximal inhibitory concentration (IC50) is 71 nM. The inhibition in vivo at 30 mg/kg in assay [1] (−5 h before LPS challenge) came to 42%. `CC(=O)OCC(=O)NCCCc1[nH]nc(-c2ccc(F)cc2)c1-c1ccncc1` [Example B-1158]: on human p38 kinase alpha, the “P38 alpha kinase % inhib @ conc. (uM)” value was 74% @. Besides, in assay [1] (−6 h before LPS challenge), the “Mouse LPS Model % TNF inhib @ dose @ predose time” value was 53% @ 30 mpk @ −6 h. The IC50 in assay [2] (setting [3]) stood at 680 nM. Consider `OCCn1cc(-c2ccnc(NCc3ccc(F)cc3)c2)c(-c2ccc(F)cc2)n1` [Example A-283, 3 (or 5)-(4-fluorophenyl)-4-[2-[[(4-fluorophenyl)methyl]amino]-4-pyridinyl]-1H-pyrazole-1-ethanol], for which the “mLPS 8 h percent inhibition” value in assay [1] (dose 30, oral gavage) was −20%. In addition, the IC50 in assay [2] (setting [5]) amounted to 800 nM. As to `CC(C)C(=O)NC(C)c1[nH]nc(-c2ccc(F)cc2)c1-c1ccncc1` (stereo not drawn) [Example B-0532], the IC50 on human p38 kinase alpha (setting [6]) was determined as 450 nM; in assay [2] (Homo sapiens, U-937, TNF production in human U937 cells stimulated with LPS, read-out: U937 Cell IC50), 1010 nM. Moreover, the inhibition in vivo at 30 mg/kg in assay [1] (−6 h before LPS challenge) came out at 41%. Consider `COCC(=O)N1CCC(c2[nH]nc(-c3ccc(F)cc3)c2-c2ccncc2)CC1` [Example B-1368], for which, at human p38 kinase alpha (in vitro P38-alpha kinase), the half-maximal inhibitory concentration (IC50) is 31 nM. Also, the inhibition in vivo at 30 mg/kg in assay [1] (setting [4]) is 44%. Consider `Cn1cc(-c2ccnc(NCCO)c2)c(-c2ccc(F)cc2)n1` [Example A-281, 2-[[4-[3-(4-fluorophenyl)-1-methyl-1H-pyrazol-4-yl]-2-pyridinyl]amino]ethanol], for which, in assay [1] (dose 30, oral gavage), the “mLPS 8 h percent inhibition” value is on record as 22%.

As for `c1cc(-c2c[nH]nc2-c2ccc3c(c2)OCO3)ccn1` [Example A-228, 4-[3-(1,3-benzodioxol-5-yl)-1H-pyrazol-4-yl]pyridine], in assay [1] (dose 30, oral gavage), the “mLPS 8 h percent inhibition” value stood at 32%. Take `CNC(=O)NC(C)c1[nH]nc(-c2ccc(F)cc2)c1-c1ccncc1` (stereo not drawn) [Example B-0585]: on human p38 kinase alpha (setting [6]), the IC50 came out at 830 nM. Further, the inhibition in vivo at 30 mg/kg in assay [1] (−6 h before LPS challenge) was 50%.

As for `Brc1ccc(-c2n[nH]cc2-c2ccncc2)cc1` [Example A-241, 4-[3-(4-bromophenyl)-1H-pyrazol-4-yl]pyridine], the “mLPS 8 h percent inhibition” value in assay [1] (dose 30, oral gavage) was found to be 79%. Still for that read-out and setting: next, `OCCNc1cc(-c2c[nH]nc2-c2ccc(F)cc2)ccn1` [Example A-280]: 15%; `OCCn1ncc(-c2ccnc(NCc3ccc(F)cc3)c2)c1-c1ccc(F)cc1` [Example A-290, 5-(4-fluorophenyl)-4-[2-[[(4-fluorophenyl)methyl]amino]-4-pyridinyl]-1H-pyrazole-1-ethanol]: 4%. Still for that read-out and setting: the same measure for `C#CCNc1[nH]nc(-c2ccc(F)cc2)c1-c1ccncc1` [Example A-288, 5-(4-fluorophenyl)-N-2-propynyl-4-(4-pyridinyl)-1H-pyrazol-3-amine]: 40%; for `Cn1cc(-c2ccnc(F)c2)c(-c2ccc(F)c(F)c2)n1` [Example A-260, 4-[3-(3,4-difluorophenyl)-1-methyl-1H-pyrazol-4-yl]-2-fluoropyridine]: 47%.

For the compound `Cn1cc(-c2ccncc2)c(-c2ccc(F)cc2)n1` [Example A-212, 4-[3-(4-fluorophenyl)-1-methyl-1H-pyrazol-4-yl]pyridine], in assay [1] (dose 10, oral gavage), the “mLPS 8 h percent inhibition” value is given as 20%. In the case of `C#CCn1ncc(-c2ccncc2)c1-c1ccc(F)cc1` [Example A-295, 4-[5-(4-fluorophenyl)-1-(2-propynyl)-1H-pyrazol-4-yl]pyridine], in assay [1] (dose 30, oral gavage), the “mLPS 8 h percent inhibition” value was found to be 94%. Same read-out and setting: the same measure for `N#Cc1cc(-c2c[nH]nc2-c2ccc(F)cc2)ccn1` [Example A-215, 4-[3-(4-fluorophenyl)-1H-pyrazol-4-yl]-2-pyridinecarbonitrile]: 38%. As for `Fc1ccc(CNc2cc(-c3cn(CCN4CCOCC4)nc3-c3ccc(F)cc3)ccn2)cc1` [Example A-276, N-[(4-fluorophenyl)methyl]-4-[3(or 5)-(4-fluorophenyl)-1-[[2-(4-morpholinyl)ethyl]-1H-pyrazol-4-yl]-2-pyridinamine], in assay [1] (dose 30, oral gavage), the “mLPS 8 h percent inhibition” value was −24%. Moreover, in assay [2] (setting [5]), the half-inhibitory concentration (IC50) is 450 nM. Take `CN(C)CCn1cc(-c2ccncc2)c(-c2ccc(F)cc2)n1` [Example A-261, 3-(4-fluorophenyl)-N,N-dimethyl-4-(4-pyridinyl)-1H-pyrazole-1-ethanamine]: the “mLPS 8 h percent inhibition” value in assay [1] (dose 30, oral gavage) is listed as 48%. On to `Cn1cc(-c2ccncc2)c(-c2ccc3c(c2)OCO3)n1` [Example A-231, 4-[3-(1,3-benzodioxol-5-y)-1-methyl-1H-pyrazol-4-yl]pyridine], for which the “mLPS 8 h percent inhibition” value in assay [1] (dose 30, oral gavage) was 86%. The same measure, in the same setting: next, `CN(C)CCn1cc(-c2ccnc(NCc3ccc(F)cc3)c2)c(-c2ccc(F)cc2)n1` [Example A-274, 4-[1-[2-(dimethylamino)ethyl]-3-(4-fluorophenyl)-1H-pyrazol-4-yl]-N-[[4-fluorophenyl)methyl]-2-pyridinamine]: 21%; `Fc1ccc(-c2n[nH]cc2-c2ccncc2)cc1F` [Example A-239, 4-[3-(3,4-difluorophenyl)-1H-pyrazol-4-yl]pyridine]: 51%. For `CS(=O)(=O)N1CCC(c2[nH]nc(-c3ccc(F)cc3)c2-c2ccncc2)CC1` [Example B-1376], the half-maximal inhibitory concentration (IC50) on human p38 kinase alpha (in vitro P38-alpha kinase) was 9 nM. In addition, in assay [1] (−6 h before LPS challenge), the “Mouse LPS Model % TNF inhib @ dose @ predose time” value is reported as 3.0% @ 30 mpk @ −6 H. On to `OCCn1cc(-c2ccnc(NCc3ccc(F)cc3)c2)c(-c2ccc(F)cc2)n1` [Example A-289, 3-(4-fluorophenyl)-4-[2-[[(4-fluorophenyl)methyl]amino]-4-pyridinyl]-1H-pyrazole-1-ethanol], for which the “mLPS 8 h percent inhibition” value in assay [1] (dose 30, oral gavage) is on record as 44%. The half-maximal inhibitory concentration (IC50) in assay [2] (setting [5]) turned out to be 140 nM.

Turning to `OCCCNc1cc(-c2c[nH]nc2-c2ccc(F)cc2)ccn1` [Example A-282, 3-[[4-(3-(4-fluorophenyl)-1H-pyrazol-4-yl]-2-pyridinyl]amino]-1-propanol], the “mLPS 8 h percent inhibition” value in assay [1] (dose 30, oral gavage) worked out at 30%. Same read-out and setting: the same measure for `Fc1cc(-c2c[nH]nc2-c2ccc(Cl)cc2)ccn1` [Example A-240]: 78%. For the compound `Fc1ccc(-c2n[nH]c(NCCN3CCOCC3)c2-c2ccncc2)cc1` [Example A-218, N-[5-(4-fluorophenyl)-4-(4-pyridinyl)-1H-pyrazol-3-yl]-4-morpholineethanamine], the “mLPS 8 h percent inhibition” value in assay [1] (dose 30, oral gavage) is 18%. With `CCN(CC)CCn1cc(-c2ccncc2)c(-c2ccc(F)cc2)n1` [Example A-284, N,N-diethyl-3-(4-fluorophenyl)-4-(4-pyridinyl)-1H-pyrazole-1-ethanamine], the “mLPS 8 h percent inhibition” value in assay [1] (dose not given, oral gavage) is −1%.

Regarding `Fc1ccc(-c2n[nH]c(NCCCN3CCOCC3)c2-c2ccncc2)cc1` [Example A-286, N-[5-(4-fluorophenyl)-4-(4-pyridinyl)-1H-pyrazol-3-yl]-4-morpholinepropanamine], the “mLPS 8 h percent inhibition” value in assay [1] (dose 30, oral gavage) was found to be 29%. Still for that read-out and setting: next, `CCN(CC)CCn1cc(-c2ccnc(F)c2)c(-c2ccc(F)cc2)n1` [Example A-278, N,N-diethyl-3-(4-fluorophenyl)-4-(2-fluoro-4-pyridinyl)-1H-pyrazole-1-ethanamine]: 62%; `Cn1cc(-c2ccncc2)c(-c2ccc(C(F)(F)F)cc2)n1` [Example A-252, 4-[1-methyl-3-[4-(trifluoromethyl)phenyl]-1H-pyrazol-4-yl]pyridine]: 48%.

For orientation: IC50 means the concentration at which inhibition is half-maximal.
